Test results reported in publication PMC11211886 (Frontiers in Pharmacology, 2024).
Where “and” joins values, the source holds several entries; their conditions need not be identical. Equal values may be shown once. Read-outs that look alike come from different tables or passages of the source.

Experiments:
OCT2 = target: T1, OCT2 (Homo sapiens, UniProt O15244); test: OCT2 inhibition, metformin uptake in transfected HEK293 cells
T1 sequence (O15244 1-555): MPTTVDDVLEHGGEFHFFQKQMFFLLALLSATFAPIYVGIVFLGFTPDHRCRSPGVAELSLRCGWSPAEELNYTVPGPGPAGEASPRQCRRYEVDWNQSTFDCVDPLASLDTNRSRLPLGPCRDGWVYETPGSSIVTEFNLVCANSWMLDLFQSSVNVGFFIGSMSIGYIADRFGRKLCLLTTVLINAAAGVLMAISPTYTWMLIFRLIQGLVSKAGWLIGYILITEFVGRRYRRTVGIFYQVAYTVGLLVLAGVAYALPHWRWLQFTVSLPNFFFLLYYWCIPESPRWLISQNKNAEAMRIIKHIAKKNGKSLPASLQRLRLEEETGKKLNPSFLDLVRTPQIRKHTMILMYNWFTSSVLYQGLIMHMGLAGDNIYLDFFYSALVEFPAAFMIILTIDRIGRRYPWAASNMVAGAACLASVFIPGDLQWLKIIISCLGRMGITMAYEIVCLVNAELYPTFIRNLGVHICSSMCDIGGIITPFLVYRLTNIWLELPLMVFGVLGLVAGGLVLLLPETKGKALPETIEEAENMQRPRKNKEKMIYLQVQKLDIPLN
Method: The pre-incubation solutions were removed, and incubation solutions containing the inhibitors and probe substrates (or transport buffer containing an equal volume of vehicle control and probe substrates) were added and incubated at 37°C for 2 min (5 min for OATP1B3). The probe substrate for OAT1 was 4-aminohippuric acid (10 μM), for OAT3 was estrone 3-sulfate (10 μM), for OCT2 was metformin (100 μM), for OATP1B1 was β-estradiol 17-(β-D-glucuronide) (5 μM), for OATP1B3 was β-estradiol 17-(β-D-glucuronide) (10 μM), and for MATE1 and MATE2-K was tetraethylammonium (10 μM). After incubation, cells were washed three times with ice-cold transport buffer (25 mM HEPES, pH 7.4, pH 8.0 for overexpressing MATE1 and MATE2-K HEK293 cells) and lysed in distilled water. The concentrations of probe substrates were determined by LC-MS/MS, and a BCA Kit (Solarbio ®Life Sciences, Beijing, China) was used to determine the protein content in the cell lysate.
where C is the concentration of the drug in the cell lysate (nM), P is the protein concentration of the cell lysate (mg/mL), and T is the incubation time (minute). Uptake ratetest compound is the uptake rate of the substrate in the presence of the test compound. Uptake ratevehicle control is the uptake rate of the substrate in the presence of the vehicle control. Uptake ratepassive is the uptake rate of the substrate in the presence of the positive inhibitor at the top test concentration.

[1] = Single-dose PK in cynomolgus monkeys (IV/PO); type: in vivo, cynomolgus monkey
CYP2E1 = target: T2, CYP2E1 (Homo sapiens, UniProt P05181); test: Reversible CYP inhibition in HLM, CYP2E1 (chlorzoxazone); type: in vitro ADME; conditions: for enzyme activity remaining: CYP2E1, HLM
T2 construct: tissue Life Technologies (Durham, NC, USA); host or cells: human liver microsomes
Method: The markers used to determine the activities of CYP isoforms were phenacetin O-deethylation for CYP1A2 (probe substrate: 50 µM phenacetin), bupropion hydroxylation for CYP2B6 (probe substrate: 70 µM bupropion), paclitaxel 6α-hydroxylation for CYP2C8 (probe substrate: 10 µM paclitaxel), diclofenac 4′-hydroxylation for CYP2C9 (probe substrate: 5 µM diclofenac), S-(+)-mephenytoin 4′-hydroxylation for CYP2C19 (probe substrate: 20 µM S-(+)-mephenytoin), dextromethorphan O-demethylation for CYP2D6 (probe substrate: 6 µM dextromethorphan), chlorzoxazone 6′-hydroxylation for CYP2E1 (probe substrate: 70 µM chlorzoxazone), and testosterone 6β-hydroxylation and midazolam 1′-hydroxylation for CYP3A4/5 (probe substrate: 45 µM testosterone and 5 µM midazolam). […] Alpha-naphthoflavone (0.04 µM), 2-phenyl-2-(1-piperidinyl)propane (5 µM), quercetin (1 µM), sulfaphenazole (0.5 µM), ticlopidine (4 µM), quinidine (0.2 µM), diethyldithiocarbamate (20 µM), and ketoconazole (0.05 µM) were used as positive inhibitors of CYP1A2, 2B6, 2C8, 2C9, 2C19, 2D6, 2E1, and 3A4, respectively. The vehicle control was prepared in the same composition as inhibitor solutions but free of inhibitors. The concentrations of probe substrates were close to Km values that were determined in-house and within the range recommended by the FDA ([Huang et al., 2007]). Reaction mixtures were incubated at 37°C for 5, 20, or 30 min, depending on the probe substrates of CYP isoforms. The reactions were terminated by adding cold acetonitrile containing IS, and the terminated incubation mixtures were centrifuged at 3,000 g for 10 min before LC-MS/MS analysis.

[2] = both sexes, cynomolgus monkey, in vivo, iv, 1 mg/kg
[3] = both sexes, cynomolgus monkey, in vivo, po, 5 mg/kg

T2 sequence (P05181 whole entry): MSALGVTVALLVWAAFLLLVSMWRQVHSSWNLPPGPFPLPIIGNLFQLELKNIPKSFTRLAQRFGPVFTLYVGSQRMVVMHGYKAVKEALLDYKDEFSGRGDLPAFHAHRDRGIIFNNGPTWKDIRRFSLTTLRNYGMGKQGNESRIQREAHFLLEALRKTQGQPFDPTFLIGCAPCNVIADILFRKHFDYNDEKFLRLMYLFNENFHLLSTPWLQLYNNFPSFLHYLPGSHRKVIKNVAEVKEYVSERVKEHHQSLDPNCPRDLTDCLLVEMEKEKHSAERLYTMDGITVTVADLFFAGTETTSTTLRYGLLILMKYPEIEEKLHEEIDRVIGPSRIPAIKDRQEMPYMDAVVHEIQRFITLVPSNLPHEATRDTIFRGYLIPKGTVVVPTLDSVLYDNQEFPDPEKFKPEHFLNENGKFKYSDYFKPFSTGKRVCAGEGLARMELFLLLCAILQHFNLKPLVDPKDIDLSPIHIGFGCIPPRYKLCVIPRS

C[C@H](Nc1ncnc(N)c1C#N)c1cc2ncc(Cl)n2nc1-c1ccccc1 [Amdizalisib]
IC50 (OCT2): > 100 µM
calculated R value (OCT2) (OCT2): < 1.1
Percentage transported (OCT2; OCT2, compound 0.3 μM): 98.7%
Uptake rate (OCT2; OCT2, compound 0.3 μM): 772±136 pmol/mg protein/min
Percentage transported (OCT2; OCT2, compound 1 μM): 93.3%
Uptake rate (OCT2; OCT2, compound 1 μM): 733±47.7 pmol/mg protein/min
Percentage transported (OCT2; OCT2, compound 3 μM): 95.1%
Uptake rate (OCT2; OCT2, compound 3 μM): 746±13.4 pmol/mg protein/min
Percentage transported (OCT2; OCT2, compound 10 μM): 92.7%
Uptake rate (OCT2; OCT2, compound 10 μM): 728±32.8 pmol/mg protein/min
Percentage transported (OCT2; OCT2, compound 30 μM): 108%
Uptake rate (OCT2; OCT2, compound 30 μM): 839±49.9 pmol/mg protein/min
Percentage transported (OCT2; OCT2, compound 100 μM): 50.8%
Uptake rate (OCT2; OCT2, compound 100 μM): 429±46.2 pmol/mg protein/min
inhibition at 2 min, 0.3 µM (OCT2; human, pH 7.4): 1.28%
inhibition at 2 min, 1 µM (OCT2; human, pH 7.4): 6.72%
inhibition at 2 min, 3 µM (OCT2; human, pH 7.4): 4.92%
inhibition at 2 min, 10 µM (OCT2; human, pH 7.4): 7.34%
inhibition at 2 min, 30 µM (OCT2; human, pH 7.4): -8.07%
inhibition at 2 min, 100 µM (OCT2; human, pH 7.4): 49.2%
FPO ([1]; Cynomolgus monkey, fasted, PO 5 mg/kg, 5 mg/kg): 30.8 ± 8.48%
AUC(0-inf) [1, 2]: 1520 ng·h/mL
AUC(0-t) [1, 2]: 1490 ng·h/mL
MRT [1, 2]: 2.2 ± 0.551 h
clearance [1, 2]: 11.3 ± 2.36 mL/min/kg
AUC(0-inf) [1, 3]: 2390 ng·h/mL
AUC(0-t) [1, 3]: 2330 ng·h/mL
Cmax [1, 3]: 480 ± 147 ng/mL
MRT [1, 3]: 4.9 ± 1 h
Tmax [1, 3]: 2 ± 0.632 h
half-life [1, 3]: 3.1 ± 0.89 h
Vd ([1]; both sexes, in vivo, Cynomolgus monkey, fasted, IV 1 mg/kg, read-out: Vss): 1.45 ± 0.207 L/kg
half-life ([1]; both sexes, in vivo, Cynomolgus monkey, fasted, IV 1 mg/kg, read-out: t1/2 (converted)): 2.82 ± 0.469 h
CL as % of the hepatic blood flow ([1]; both, cynomolgus monkey, in vivo, iv): 25.7%
FPO ([1]; both, cynomolgus monkey, in vivo, po, 5 mg/kg): 30.8%
enzyme activity remaining (CYP2E1; 0.08 μM): 99.7% and 97.6%
enzyme activity remaining (CYP2E1; 0.4 μM): 99.0% and 96.9%
enzyme activity remaining (CYP2E1; 2 μM): 101% and 95.5%
enzyme activity remaining (CYP2E1; 10 μM): 105% and 97.6%
enzyme activity remaining (CYP2E1; 50 μM): 118% and 113%
IC50 (CYP2E1; HLM, reversible, without pre-incubation): > 50 µM
